# Results published in ChEMBL document CHEMBL4825686, “HTS-based discovery and optimization of novel positive allosteric modulators of the α7 nicotinic acetylcholine receptor” (Eur J Med Chem, 2021).
# pEC50, pIC50: −log10 of the molar value. Activity calls are given as the source filed them. The rule behind the calls is not given here.
# What was measured:
# [1] = Drug uptake in NMRI mouse brain at 1 mg/kg, ip measured after 1 hr by HPLC-MS/MS analysis; format: ADME, organism-based; settings: read-out: Ct
# [2] = Mutagenicity in Salmonella typhimurium TA1535 in absence of rat liver S9 fraction by AMES test; format: toxicity; settings: salmonella enterica subsp. enterica serovar typhimurium
# [3] = Plasma concentration in NMRI mouse at 10 mg/kg, ip measured after 1 hr by HPLC-MS/MS analysis; format: ADME, organism-based
# [4] = Ratio of drug level in NMRI mouse brain to plasma at 10 mg/kg, ip measured after 1 hr by HPLC-MS/MS analysis; format: ADME, organism-based; settings: read-out: BPR
# [5] = Mutagenicity in Salmonella typhimurium TA100 in presence of rat liver S9 fraction by AMES test; format: toxicity, subcellular; settings: salmonella enterica subsp. enterica serovar typhimurium
# [6] = Plasma concentration in NMRI mouse at 0.3 mg/kg, ip measured after 1 hr by HPLC-MS/MS analysis; format: ADME, organism-based
# [7] = Mutagenicity in Salmonella typhimurium TA1537 in absence of rat liver S9 fraction by AMES test; format: toxicity; settings: salmonella enterica subsp. enterica serovar typhimurium
# [8] = target: GABA-A receptor; alpha-1/beta-3/gamma-2 (Homo sapiens) (UniProt P14867+P18507+P28472); test: Inhibition of human alpha1beta3gamma2 GABAA receptor expressed in HEK293 cells assessed as inhibition of GABA induced channel current response at 1 to 10 uM measured after 7 to 10 mins at -80 mV holding potential by whole-cell patch clamp assay; format: cell-based; settings: dose 1-10 µM, time 7-10 min
# [9] = target: T1, Neuronal acetylcholine receptor subunit alpha-7 (Homo sapiens, UniProt P36544); test: Positive allosteric modulation of human alpha7 nAChR expressed in HEK293 cells assessed as increase in peak current amplitude measured after 6 to 10 mins at -80 mV holding potential by automated whole cell patch clamp analysis; format: cell-based
# [10] = target: Glutamate NMDA receptor (Rattus norvegicus) (UniProt P35439+Q00959+Q00960+Q00961+Q62645+Q8VHN2+Q9R1M7); test: Displacement of [3H]CGP39653 from NMDA receptor in Wistar rat cerebral cortex at 10 uM by displacement binding assay; format: tissue-based
# [11] = target: GABA-A receptor; alpha-5/beta-3/gamma-2 (Homo sapiens) (UniProt P18507+P28472+P31644); test: Inhibition of human alpha5beta3gamma2 GABAA receptor expressed in HEK293 cells assessed as inhibition of GABA induced channel current response at 1 to 10 uM measured after 7 to 10 mins at -80 mV holding potential by whole-cell patch clamp assay; format: cell-based; settings: dose 1-10 µM, time 7-10 min
# [12] = Mutagenicity in Salmonella typhimurium TA98 in presence of rat liver S9 fraction by AMES test; format: toxicity, subcellular; settings: salmonella enterica subsp. enterica serovar typhimurium
# [13] = Drug uptake in Wistar rat brain at 10 mg/kg, ip measured after 35 mins by HPLC-MS/MS analysis; format: ADME, organism-based; settings: read-out: Ct
# [14] = target: GABA-A receptor; anion channel (Rattus norvegicus) (UniProt O09028+P15431+P18506+P18508+P19969+P20236+P23574+P23576+P28471+P28473+P30191+P62813+P63079+P63138+Q91ZM7+Q9ES14); test: Displacement of [3H]muscimol from GABAA receptor in Wistar rat brain without cerebellum at 10 uM by displacement binding assay; format: tissue-based
# [15] = Drug uptake in NMRI mouse brain at 0.1 mg/kg, ip measured after 1 hr by HPLC-MS/MS analysis; format: ADME, organism-based; settings: read-out: Ct
# [16] = Lipophilicity, logP of the compound; format: physicochemical; settings: octanol/water
# [17] = target: T1, Neuronal acetylcholine receptor subunit alpha-7; test: Positive allosteric modulator activity at human alpha7 nAChR expressed in Flp-In-HEK293 cells co-expressing RIC-3 assessed as potentiation of PNU282987-induced calcium influx measured after 10 mins by FLIPR assay; format: cell-based, Flp-In-293; settings: read-out: EC50
# [18] = Ratio of drug level in NMRI mouse brain to plasma at 0.1 mg/kg, ip measured after 1 hr by HPLC-MS/MS analysis; format: ADME, organism-based; settings: read-out: BPR
# [19] = Drug uptake in Wistar rat brain at 1 mg/kg, ip measured after 35 mins by HPLC-MS/MS analysis; format: ADME, organism-based; settings: read-out: Ct
# [20] = target: T2, Neuronal acetylcholine receptor; alpha3/beta4 (Homo sapiens) (UniProt P30926+P32297); test: Agonist activity at alpha3beta4 nAChR (unknown origin) upto 30 uM by automated Q-patch clamp assay; settings: dose microM <=30
# [21] = Metabolic stability in human liver microsomes assessed as intrinsic clearance at 1 uM measured per mg protein upto 40 mins; format: ADME, Microsome; settings: read-out: CLH
# [22] = Ratio of drug level in NMRI mouse brain to plasma at 0.3 mg/kg, ip measured after 1 hr by HPLC-MS/MS analysis; format: ADME, organism-based; settings: read-out: BPR
# [23] = Ratio of drug level in Wistar rat brain to plasma at 3 mg/kg, ip measured after 35 mins by HPLC-MS/MS analysis; format: ADME, organism-based; settings: read-out: BPR
# [24] = Plasma concentration in NMRI mouse at 1 mg/kg, ip measured after 1 hr by HPLC-MS/MS analysis; format: ADME, organism-based
# [25] = Ratio of drug level in Wistar rat brain to plasma at 1 mg/kg, ip measured after 35 mins by HPLC-MS/MS analysis; format: ADME, organism-based; settings: read-out: BPR
# [26] = target: Voltage-gated inwardly rectifying potassium channel KCNH2 (Homo sapiens, UniProt Q12809); test: Inhibition of human ERG channel expressed in CHO cells measured after 7 to 10 mins at -80 mV holding potential by whole cell patch clamp assay; format: cell-based
# [27] = Plasma concentration in NMRI mouse at 0.1 mg/kg, ip measured after 1 hr by HPLC-MS/MS analysis; format: ADME, organism-based
# [28] = target: T2, Neuronal acetylcholine receptor; alpha3/beta4 (Homo sapiens); test: Positive allosteric modulator activity at alpha3beta4 nAChR (unknown origin) upto 10 uM by automated Q-patch clamp assay; settings: dose microM <=10
# [29] = Metabolic stability in Wistar rat liver microsomes assessed as intrinsic clearance at 1 uM measured per mg protein upto 40 mins; format: ADME, Microsome; settings: read-out: CLH
# [30] = target: 5-hydroxytryptamine receptor 2B (Homo sapiens) (UniProt P41595); test: Binding affinity to human recombinant 5-HT2B receptor assessed as displacement of radioligand at 10 uM by displacement binding assay
# [31] = target: T1, Neuronal acetylcholine receptor subunit alpha-7; test: Positive allosteric modulation of human alpha7 nAChR expressed in HEK293 cells assessed as inhibition of choline-evoked current desensitization measured after 6 to 10 mins at -80 mV holding potential by automated whole cell patch clamp analysis; format: cell-based; settings: filed as positive allosteric modulator, time 6-10 min
# [32] = Ratio of drug level in NMRI mouse brain to plasma at 3 mg/kg, ip measured after 1 hr by HPLC-MS/MS analysis; format: ADME, organism-based; settings: read-out: BPR
# [33] = Apparent permeability across apical to basolateral side in vinblastine-treated human Caco-2 cells expressing P-glycoprotein at 10 uM incubated for 120 mins by HPLC analysis; format: ADME
# [34] = test system: Mus musculus; test: Cognitive enhancing effect in scopolamine-induced amnesia NMRI mouse model assessed as increase in recognition index at 1 to 10 mg/kg, ip administered 30 mins prior to scopolamine injection by Y-maze test; format: functional, organism-based; settings: dose 1-10 mg/kg
# [35] = Plasma concentration in Wistar rat at 3 mg/kg, ip measured after 35 mins by HPLC-MS/MS analysis; format: ADME, organism-based
# T1 sequence (P36544 whole entry): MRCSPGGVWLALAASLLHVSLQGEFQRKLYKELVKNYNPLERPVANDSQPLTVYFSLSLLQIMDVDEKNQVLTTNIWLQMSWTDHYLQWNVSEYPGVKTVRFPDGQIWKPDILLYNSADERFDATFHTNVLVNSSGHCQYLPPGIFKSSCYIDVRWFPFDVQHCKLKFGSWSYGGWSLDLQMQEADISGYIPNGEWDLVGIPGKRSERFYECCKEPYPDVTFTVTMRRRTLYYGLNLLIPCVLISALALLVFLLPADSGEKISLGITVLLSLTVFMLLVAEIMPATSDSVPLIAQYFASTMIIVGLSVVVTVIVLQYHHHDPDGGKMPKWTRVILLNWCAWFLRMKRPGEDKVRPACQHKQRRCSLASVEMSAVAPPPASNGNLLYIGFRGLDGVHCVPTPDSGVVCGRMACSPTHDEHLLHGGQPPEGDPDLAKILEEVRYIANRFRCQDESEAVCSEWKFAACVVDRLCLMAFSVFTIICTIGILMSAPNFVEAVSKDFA
# Chain of 5-hydroxytryptamine receptor 2B (Homo sapiens) (P41595 whole entry): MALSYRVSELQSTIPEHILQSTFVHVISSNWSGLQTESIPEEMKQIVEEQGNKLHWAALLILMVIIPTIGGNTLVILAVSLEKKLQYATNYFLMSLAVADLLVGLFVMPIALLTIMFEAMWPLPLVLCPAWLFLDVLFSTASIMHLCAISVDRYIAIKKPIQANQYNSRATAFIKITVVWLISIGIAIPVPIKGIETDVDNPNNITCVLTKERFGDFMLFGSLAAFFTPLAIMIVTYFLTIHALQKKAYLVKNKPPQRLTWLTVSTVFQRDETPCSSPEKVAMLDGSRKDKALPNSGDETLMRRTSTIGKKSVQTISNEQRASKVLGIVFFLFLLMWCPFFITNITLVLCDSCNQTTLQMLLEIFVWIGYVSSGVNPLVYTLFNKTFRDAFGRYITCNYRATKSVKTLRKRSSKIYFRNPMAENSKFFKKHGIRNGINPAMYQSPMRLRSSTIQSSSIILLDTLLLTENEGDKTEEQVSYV
# Chain of Voltage-gated inwardly rectifying potassium channel KCNH2 (Q12809 whole entry): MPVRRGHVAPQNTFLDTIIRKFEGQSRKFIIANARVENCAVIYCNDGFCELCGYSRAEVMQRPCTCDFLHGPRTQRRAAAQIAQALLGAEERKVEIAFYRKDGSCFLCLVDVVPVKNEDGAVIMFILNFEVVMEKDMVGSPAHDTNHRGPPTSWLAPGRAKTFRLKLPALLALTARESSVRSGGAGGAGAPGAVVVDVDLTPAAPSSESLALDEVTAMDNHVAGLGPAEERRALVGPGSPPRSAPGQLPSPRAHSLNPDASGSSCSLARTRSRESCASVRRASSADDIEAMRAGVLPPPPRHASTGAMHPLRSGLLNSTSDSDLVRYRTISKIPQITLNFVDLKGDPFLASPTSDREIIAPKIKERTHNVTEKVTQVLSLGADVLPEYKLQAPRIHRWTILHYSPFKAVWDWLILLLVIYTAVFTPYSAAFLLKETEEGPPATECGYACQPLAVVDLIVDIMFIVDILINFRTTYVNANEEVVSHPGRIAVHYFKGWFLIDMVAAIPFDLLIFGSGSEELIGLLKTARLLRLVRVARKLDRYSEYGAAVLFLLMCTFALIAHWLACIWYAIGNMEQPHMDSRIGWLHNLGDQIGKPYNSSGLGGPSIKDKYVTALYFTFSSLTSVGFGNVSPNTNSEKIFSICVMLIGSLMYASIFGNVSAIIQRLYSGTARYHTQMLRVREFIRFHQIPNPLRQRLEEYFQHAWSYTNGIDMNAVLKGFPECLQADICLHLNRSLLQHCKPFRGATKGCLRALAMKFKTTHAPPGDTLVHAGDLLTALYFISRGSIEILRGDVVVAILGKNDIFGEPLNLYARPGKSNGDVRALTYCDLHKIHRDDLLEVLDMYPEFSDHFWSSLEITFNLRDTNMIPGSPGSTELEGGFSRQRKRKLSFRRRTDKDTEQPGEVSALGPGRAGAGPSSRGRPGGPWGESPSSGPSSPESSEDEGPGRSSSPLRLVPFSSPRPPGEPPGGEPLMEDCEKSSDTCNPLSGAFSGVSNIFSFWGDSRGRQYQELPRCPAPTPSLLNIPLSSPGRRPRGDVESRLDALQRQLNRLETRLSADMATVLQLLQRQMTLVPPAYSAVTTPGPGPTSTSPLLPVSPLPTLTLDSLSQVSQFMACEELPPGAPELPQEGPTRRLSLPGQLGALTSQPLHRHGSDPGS
smiles,measurement,setting,value
Cc1ccc(CN2CCN(C(=O)C(=O)Nc3ccc4c(ccn4C)c3)CC2)cc1,concentration at 1 h,[1],39 nM
same,Activity,[2],Non-Toxic
same,concentration at 1 h,[3],142 nM
same,Kp at 1 h,[4],1.67
same,Activity,[5],Non-Toxic
same,concentration at 1 h,[6],4.3 nM
same,Activity,[7],Non-Toxic
same,inhibition,[8],< 7%
same,pEC50,[9],6.15
same,inhibition,[10],< 15%
same,inhibition,[11],< 7%
same,Activity,[12],Non-Toxic
same,concentration at 35 min,[13],657 nM
same,inhibition,[14],< 15%
same,concentration at 1 h,[15],3.1 nM
same,logP,[16],3.7
same,pEC50,[17],7.05
same,Kp at 1 h,[18],1.32
same,concentration at 35 min,[19],135 nM
same,Activity,[20],inactive
same,microsomal CLint at 1 µM,[21],15 µL/min/mg
same,Kp at 1 h,[22],1.22
same,Kp at 35 min,[23],3.8
same,concentration at 1 h,[24],21 nM
same,Kp at 35 min,[25],4.93
same,pIC50,[26],5.12
same,concentration at 1 h,[27],2.1 nM
same,Activity,[28],inactive
same,microsomal CLint at 1 µM,[29],158 µL/min/mg
same,inhibition,[30],98%
same,Activity,[31],Active
same,Kp at 1 h,[32],1.68
same,"Papp A→B at 2 h, 10 µM",[33],30.7 ×10⁻⁶ cm/s
same,Activity,[34],Active
same,concentration at 35 min,[35],54 nM
